From patent US12052991B2, “Substituted pyridinyloxybenzenes and salts thereof and use thereof as herbicidal agents” (Bayer Aktiengesellschaft, priority 2018, dated 2024)

test system: Poa annua (POAAN); test: Herbicidal post-emergence action (Table B3); format: in vivo; settings: 320 g/ha; rated visually after about 3 weeks; 100% = plants have died, 0% = like control plants
Procedure: (§1) Seeds of mono- and dicotyledonous weed plants were placed in plastic pots in sandy loam soil (doubly sown with in each case one species of mono- or dicotyledonous weed plants per pot), covered with soil and cultivated in a greenhouse under controlled growth conditions. 2 to 3 weeks after sowing, the test plants were treated at the one-leaf stage. The compounds of the invention, formulated in the form of wettable powders (WP) or as emulsion concentrates (EC), were applied onto the green parts of the plants as aqueous suspension or emulsion with addition of 0.5% additive at a water application rate of 600 liters per hectare (converted). After the test plants had been kept in the greenhouse under optimum growth conditions for about 3 weeks, the activity of the preparations was rated visually in comparison to untreated controls. For example, 100% activity=the plants have died, 0% activity=like control plants. Tables B1 to B12 below show the effects of selected compounds of the general formula (I) according to Table 1 on various harmful plants and an application rate corresponding to 1280 or 320 g/ha, which were obtained by the experimental procedure mentioned above.

| SMILES | Post-emergence action against Poa annua (POAAN) |
| --- | --- |
| Fc1cccc(Oc2ccc(Cl)cn2)c1-c1cc(C(F)F)on1 [Example 1-9] | 100% |

same assay, conditions: 1280 g/ha; rated visually after about 3 weeks; 100% = plants have died, 0% = like control plants

| SMILES | Post-emergence action against Poa annua (POAAN) |
| --- | --- |
| Cc1ccc(-c2cc(C(F)F)no2)c(Oc2ncc(Cl)cc2Cl)c1 [Example 1-28] | 90% |
| Fc1cccc(Oc2ccc(Cl)cn2)c1-c1cc(C(F)F)on1 [Example 1-9] | 100% |

test system: Setaria viridis (SETVI); test: Herbicidal pre-emergence action, test C (Table C4); format: in vivo; settings: dosage 320 g/ha; visual scoring after about 3 weeks; 100% = plants have died, 0% = like control plants
Description: (§2) Seeds of mono- and dicotyledonous weed plants were placed in plastic pots in sandy loam soil (doubly sown with one species each of mono- or dicotyledonous weed plants per pot) and covered with soil. The compounds of the invention, formulated in the form of wettable powders (WP) or as emulsion concentrates (EC), were then applied onto the surface of the covering soil as aqueous suspension or emulsion with addition of 0.5% additive at a water application rate of 600 liters per hectare (converted). After the treatment, the pots were placed in a greenhouse and kept under good growth conditions for the test plants. After about 3 weeks, the effect of the preparations was scored visually in comparison with untreated controls as percentages. For example, 100% activity=the plants have died, 0% activity=like control plants. Tables C1 to C12 below show the effects of selected compounds of the general formula (I) according to Table 1 on various harmful plants and an application rate corresponding to 1280 or 320 g/ha, which were obtained by the experimental procedure mentioned above.

| SMILES | Pre-emergence action against Setaria viridis (SETVI) |
| --- | --- |
| Cc1ccc(-c2cc(C(F)F)no2)c(Oc2ncc(Cl)cc2Cl)c1 [Example 1-28] | 90% |

same assay, conditions: dosage 1280 g/ha; visual scoring after about 3 weeks; 100% = plants have died, 0% = like control plants

| SMILES | Pre-emergence action against Setaria viridis (SETVI) |
| --- | --- |
| Cc1ccc(-c2cc(C(F)F)no2)c(Oc2ncc(Cl)cc2Cl)c1 [Example 1-28] | 90% |
| Fc1cccc(Oc2ccc(Cl)cn2)c1-c1cc(C(F)F)on1 [Example 1-9] | 100% |

test system: Amaranthus retroflexus (AMARE); test: Herbicidal post-emergence action (Table B6); format: in vivo; settings: dosage 320 g/ha; visual rating about 3 weeks after treatment; 100% = plants have died, 0% = like control plants
Procedure: as §1

| SMILES | Post-emergence action against Amaranthus retroflexus (AMARE) |
| --- | --- |
| Cc1ccc(-c2cc(C(F)F)no2)c(Oc2ncc(Cl)cc2Cl)c1 [Example 1-28] | 90% |
| Fc1cccc(Oc2ccc(Cl)cn2)c1-c1cc(C(F)F)on1 [Example 1-9] | 100% |

same assay, conditions: dosage 1280 g/ha; visual rating about 3 weeks after treatment; 100% = plants have died, 0% = like control plants

| SMILES | Post-emergence action against Amaranthus retroflexus (AMARE) |
| --- | --- |
| Cc1ccc(-c2cc(C(F)F)no2)c(Oc2ncc(Cl)cc2Cl)c1 [Example 1-28] | 100% |
| Fc1cccc(Oc2ccc(Cl)cn2)c1-c1cc(C(F)F)on1 [Example 1-9] | 100% |

test system: Stellaria media (STEME); test: Herbicidal pre-emergence action, test C (Table C8); format: in vivo; settings: dosage 320 g/ha; visual scoring after about 3 weeks; 100% = plants have died, 0% = like control plants
Description: as §2

| SMILES | Pre-emergence action against Stellaria media (STEME) |
| --- | --- |
| Fc1cccc(Oc2ccc(Cl)cn2)c1-c1cc(C(F)F)on1 [Example 1-9] | 100% |

same assay, conditions: dosage 1280 g/ha; visual scoring after about 3 weeks; 100% = plants have died, 0% = like control plants

| SMILES | Pre-emergence action against Stellaria media (STEME) |
| --- | --- |
| Cc1ccc(-c2cc(C(F)F)no2)c(Oc2ncc(Cl)cc2Cl)c1 [Example 1-28] | 90% |
| Fc1cccc(Oc2ccc(Cl)cn2)c1-c1cc(C(F)F)on1 [Example 1-9] | 100% |

test system: Matricaria inodora (MATIN); test: Herbicidal pre-emergence action, test C (Table C7); format: in vivo; settings: dosage 1280 g/ha; visual scoring after about 3 weeks; 100% = plants have died, 0% = like control plants
Description: as §2

| SMILES | Pre-emergence action against Matricaria inodora (MATIN) |
| --- | --- |
| Fc1cccc(Oc2ccc(Cl)cn2)c1-c1cc(C(F)F)on1 [Example 1-9] | 90% |

test system: harmful plants ABUTH, AMARE, ECHCG, LOLRI, MATIN, POAAN, SETVI, STEME, ALOMY, DIGSA, KCHSC and VERPE; test: Herbicidal pre-emergence action (test C), summary of Tables C1-C12; format: in vivo; settings: application rate of 1280 or 320 g of active ingredient per hectare; summary in words
Description: as §2, with “percentages.” for “percentages. For example, 100% activity=the plants have died, 0% activity=like control plants. Tables C1 to C12 below show the effects of selected compounds of the general formula (I) according to Table 1 on various harmful plants and an application rate corresponding to 1280 or 320 g/ha, which were obtained by the experimental procedure mentioned above.”
(§3) For example, 100% activity=the plants have died, 0% activity=like control plants.
Tables C1 to C12 below show the effects of selected compounds of the general formula (I) according to Table 1 on various harmful plants and an application rate corresponding to 1280 or 320 g/ha, which were obtained by the experimental procedure mentioned above.
As the results of Tables C1-C12 show, compounds no.

| SMILES | herbicidal activity against the harmful plants of Tables C1-C12 in pre-emergence treatment |
| --- | --- |
| Cc1ccc(-c2cc(C(F)F)no2)c(Oc2ncc(Cl)cc2Cl)c1 [Example 1-28] | very good herbicidal activity |
| Fc1cccc(Oc2ccc(Cl)cn2)c1-c1cc(C(F)F)on1 [Example 1-9] | very good herbicidal activity |

test system: Veronica persica (VERPE); test: Herbicidal post-emergence action (Table B12); format: in vivo; settings: dosage 1280 g/ha; visual rating about 3 weeks after treatment; 100% = plants have died, 0% = like control plants
Procedure: as §1

| SMILES | Post-emergence action against Veronica persica (VERPE) |
| --- | --- |
| Cc1ccc(-c2cc(C(F)F)no2)c(Oc2ncc(Cl)cc2Cl)c1 [Example 1-28] | 90% |

test system: Abutilon theophrasti (ABUTH); test: Herbicidal post-emergence action (Table B5); format: in vivo; settings: 320 g/ha; rated visually after about 3 weeks; 100% = plants have died, 0% = like control plants
Procedure: as §1

| SMILES | Post-emergence action against Abutilon theophrasti (ABUTH) |
| --- | --- |
| Fc1cccc(Oc2ccc(Cl)cn2)c1-c1cc(C(F)F)on1 [Example 1-9] | 100% |

same assay, conditions: 1280 g/ha; rated visually after about 3 weeks; 100% = plants have died, 0% = like control plants

| SMILES | Post-emergence action against Abutilon theophrasti (ABUTH) |
| --- | --- |
| Fc1cccc(Oc2ccc(Cl)cn2)c1-c1cc(C(F)F)on1 [Example 1-9] | 100% |

test system: harmful plants ABUTH, AMARE, ECHCG, LOLRI, MATIN, POAAN, SETVI, STEME, ALOMY, DIGSA, KCHSC and VERPE; test: Herbicidal post-emergence action, summary of Tables B1-B12; format: in vivo; settings: application rate of 1280 or 320 g of active ingredient per hectare; summary in words
Procedure: as §1, with “controls.” for “controls. For example, 100% activity=the plants have died, 0% activity=like control plants. Tables B1 to B12 below show the effects of selected compounds of the general formula (I) according to Table 1 on various harmful plants and an application rate corresponding to 1280 or 320 g/ha, which were obtained by the experimental procedure mentioned above.”
as §3
Tables B1 to B12 below show the effects of selected compounds of the general formula (I) according to Table 1 on various harmful plants and an application rate corresponding to 1280 or 320 g/ha, which were obtained by the experimental procedure mentioned above.
As the results of Tables B1-B12 show, compounds no.

| SMILES | herbicidal activity against the harmful plants of Tables B1-B12 in post-emergence treatment |
| --- | --- |
| Cc1ccc(-c2cc(C(F)F)no2)c(Oc2ncc(Cl)cc2Cl)c1 [Example 1-28] | very good herbicidal activity |
| Fc1cccc(Oc2ccc(Cl)cn2)c1-c1cc(C(F)F)on1 [Example 1-9] | very good herbicidal activity |

test system: Abutilon theophrasti (ABUTH); test: Herbicidal pre-emergence action, test C (Table C5); format: in vivo; settings: dosage 1280 g/ha; visual scoring after about 3 weeks; 100% = plants have died, 0% = like control plants
Description: as §2

| SMILES | Pre-emergence action against Abutilon theophrasti (ABUTH) |
| --- | --- |
| Fc1cccc(Oc2ccc(Cl)cn2)c1-c1cc(C(F)F)on1 [Example 1-9] | 100% |

test system: Poa annua (POAAN); test: Herbicidal pre-emergence action, test C (Table C3); format: in vivo; settings: dosage 320 g/ha; visual scoring after about 3 weeks; 100% = plants have died, 0% = like control plants
Description: as §2

| SMILES | Pre-emergence action against Poa annua (POAAN) |
| --- | --- |
| Fc1cccc(Oc2ccc(Cl)cn2)c1-c1cc(C(F)F)on1 [Example 1-9] | 100% |

same assay, conditions: dosage 1280 g/ha; visual scoring after about 3 weeks; 100% = plants have died, 0% = like control plants

| SMILES | Pre-emergence action against Poa annua (POAAN) |
| --- | --- |
| Fc1cccc(Oc2ccc(Cl)cn2)c1-c1cc(C(F)F)on1 [Example 1-9] | 100% |

test system: Stellaria media (STEME); test: Herbicidal post-emergence action (Table B8); format: in vivo; settings: dosage 320 g/ha; visual rating about 3 weeks after treatment; 100% = plants have died, 0% = like control plants
Procedure: as §1

| SMILES | Post-emergence action against Stellaria media (STEME) |
| --- | --- |
| Fc1cccc(Oc2ccc(Cl)cn2)c1-c1cc(C(F)F)on1 [Example 1-9] | 100% |

same assay, conditions: dosage 1280 g/ha; visual rating about 3 weeks after treatment; 100% = plants have died, 0% = like control plants

| SMILES | Post-emergence action against Stellaria media (STEME) |
| --- | --- |
| Cc1ccc(-c2cc(C(F)F)no2)c(Oc2ncc(Cl)cc2Cl)c1 [Example 1-28] | 100% |
| Fc1cccc(Oc2ccc(Cl)cn2)c1-c1cc(C(F)F)on1 [Example 1-9] | 100% |

test system: Amaranthus retroflexus (AMARE); test: Herbicidal pre-emergence action, test C (Table C6); format: in vivo; settings: dosage 320 g/ha; visual scoring after about 3 weeks; 100% = plants have died, 0% = like control plants
Description: as §2

| SMILES | Pre-emergence action against Amaranthus retroflexus (AMARE) |
| --- | --- |
| Fc1cccc(Oc2ccc(Cl)cn2)c1-c1cc(C(F)F)on1 [Example 1-9] | 100% |

same assay, conditions: dosage 1280 g/ha; visual scoring after about 3 weeks; 100% = plants have died, 0% = like control plants

| SMILES | Pre-emergence action against Amaranthus retroflexus (AMARE) |
| --- | --- |
| Fc1cccc(Oc2ccc(Cl)cn2)c1-c1cc(C(F)F)on1 [Example 1-9] | 100% |
